Measurements: ChEMBL document CHEMBL1157539, “Thousands of chemical starting points for antimalarial lead identification” (Nature, 2010)

tested on: Plasmodium falciparum; experiment: GSK_TCMDC: Inhibition of Plasmodium falciparum 3D7 in whole erythrocytes, using parasite LDH activity as an index of growth.; assay type: functional, organism-based; details: Plasmodium falciparum, 3D7

Point of comparison: `Cc1ccc(Cc2c[nH]c(NCCSCc3ccc(CN(C)C)s3)nc2=O)cn1`, XC50 860 nM. Against it:
- CCOC(=O)CCCOc1cc(Cc2cnc(N)nc2N)cc(OC)c1OC — 3.6-fold lower, 239 nM
- Cc1cc(CNCCCCCNCc2ccc(Cl)cc2)ccc1O — within 1.5-fold, 706 nM
- O=C(NCCCCN1CCC(c2nc3ccccc3s2)CC1)c1cc2ccccc2[nH]1 — within 1.5-fold, 1020 nM
- O=C(/C=C/c1ccc(Cl)c(Cl)c1)N1CCC(CCN2CCC(c3c[nH]c4cnccc34)CC2)CC1 — 7.2-fold lower, 119 nM
- O=C(Nc1ccc(C(=O)OCC2CCCN3CCCCC23)cc1)c1ccc(Cl)c(Cl)c1 (stereo unspecified) — within 1.5-fold, 721 nM
- Oc1ccc(Cl)c2c1C(c1ccccc1)=NCC2 — 1.6-fold lower, 540 nM
- N#Cc1ccc(Cn2ccc3c4c(N)nc(N)nc4ccc32)cc1 — 260-fold lower, 3.29 nM
- Cc1sc2ncnc(Sc3nnc(N)s3)c2c1C — 2.2-fold lower, 399 nM
- COc1ccc2nccc(N3CCN(CCNCc4ccc5c(n4)NC(=O)CO5)CC3)c2c1 — within 1.5-fold, 1160 nM
- N#Cc1cc([N+](=O)[O-])ccc1-n1nc(-c2cccc(Cl)c2)n(Cc2ccco2)c1=S — 4.4-fold lower, 196 nM
- CCN(C)c1cc(C(=O)N[C@@H](Cc2ccccc2)[C@H](O)CNC(C)(C)c2cccc(OC)c2)cc(N2CCCC2=O)c1 — 12-fold lower, 73 nM
- Cc1nc(C)n(CC(=O)Nc2cccc(-c3cccc(-c4nc5cc(C(F)(F)F)ccc5[nH]4)c3)c2)n1 — within 1.5-fold, 761 nM
- N=C(N)Nc1nc(-c2cccc(NC(=O)NCC(c3ccccc3)c3ccccc3)c2)cs1 — within 1.5-fold, 791 nM
- COc1cc2nc(N(C)C3CCN(Cc4ccccc4)CC3)nc(N)c2cc1OC — 2.6-fold lower, 334 nM
- COc1ccc(NC(=O)C2c3ccccc3C(=O)N(C3CCCC3)C2c2cccs2)cc1 (stereo unspecified) — 2-fold higher, 1710 nM
- COc1ccc(-c2cccc(NC(=O)c3cccc(Cl)c3)c2)cc1CNC(C)C — within 1.5-fold, 721 nM
- CC1CCN(CC[C@H]2CCCN2S(=O)(=O)c2cccc(NC(=O)Nc3ccc(C(F)(F)F)cc3)c2)CC1 — within 1.5-fold, 722 nM
- OC(CNCc1ccco1)Cn1c2ccc(Br)cc2c2cc(Br)ccc21 (stereo unspecified) — within 1.5-fold, 1070 nM
- COc1ccc(Nc2nc(C)cc(NC3CCCC3)n2)cc1 — within 1.5-fold, 872 nM
- CC(C)(C)c1ccc(N2C(N)=NC(N)=NC2(C)C)cc1Cl — 130-fold lower, 6.56 nM
- CC(=O)C1=NN(c2ccc(C)cc2)C(c2cccs2)N1c1ccccc1 (stereo unspecified) — 2.5-fold lower, 338 nM
- Cc1cc(NC(=O)Nc2cccc(C#N)c2)c2ccccc2n1 — within 1.5-fold, 581 nM
- CN(C)Cc1ccc2cc(NC(=O)c3ccc(-c4ccc(Cl)cc4)cc3)ccc2c1 — 1.6-fold higher, 1340 nM
- COc1ccc2ccccc2c1CCCCN1CCN(CC(c2ccc(F)cc2)N2CCN(C3CCCC3)CC2)CC1 (stereo unspecified) — within 1.5-fold, 772 nM
- OC(CN1CCN(Cc2ccccc2)CC1)Cn1c(-c2ccccc2)c(-c2ccccc2)c2ccccc21 (stereo unspecified) — within 1.5-fold, 711 nM
- O=C(N[C@@H](CC1CCCCC1)C(=O)NCCN1CCCCC1)c1ccc(O)c(-c2cccc(C(F)(F)F)c2)c1 — within 1.5-fold, 831 nM
- CC(C)(CNC(=O)[C@H]1CCCN1)c1nc(-c2ccc(Cl)c(O)c2)c(-c2ccncc2)[nH]1 — within 1.5-fold, 1270 nM
- Cc1cc(N(C)C2CCN(C)CC2)nc(Nc2ccc(Cl)cc2)n1 — 3-fold lower, 290 nM
- CO/C(=C\C=C\c1cc2cc(Cl)c(Cl)cc2[nH]1)C(=O)NCCCN1CCC(c2ccccc2)CC1 — within 1.5-fold, 906 nM
- O=C(/C=C/c1ccc(Cl)c(Cl)c1)N1CCC2CC(N3CCC(c4c[nH]c5ccccc45)CC3)CCC2C1 (stereo unspecified) — 5-fold lower, 171 nM
- COC(=O)c1cccc(CNCc2cccc(-c3cccc(-c4nc5ccccc5[nH]4)c3)c2)c1 — 1.7-fold lower, 504 nM
- CN1CCN(CC(=O)Nc2ccc(-c3csc(-c4nc5ccccc5[nH]4)c3)cc2)CC1 — 1.8-fold higher, 1560 nM
- NCC1CCCN1Cc1ccc(-c2ccc(-c3nc4cc(C(F)(F)F)ccc4[nH]3)cc2)cc1 (stereo unspecified) — within 1.5-fold, 959 nM
- O=C1CCCN1CCCNCc1ccc(-c2ccc(-c3nc4cc(F)ccc4[nH]3)cc2)cc1 — within 1.5-fold, 603 nM
- CCNc1cc(C(=O)N[C@@H](Cc2ccccc2)[C@H](O)CNC2CCCCC2)cc(N2CCCCS2(=O)=O)c1 — 5.1-fold lower, 170 nM
- Brc1cc(CNCCCNc2nc3ccccc3[nH]2)sc1Br — 3.9-fold lower, 221 nM
- Cc1cc(NC(=O)CCN2CCN(c3cccc(Cl)c3Cl)CC2)ccc1N1CCN(C(C)C)CC1 — within 1.5-fold, 847 nM
- C[C@H](Cc1ccc(OCCCCCCOc2ccccc2)cc1)NC[C@@H](O)c1cc(Br)no1 — within 1.5-fold, 883 nM
- CC[C@H]1CN(Cc2ccco2)CC[C@H]1CCCc1ccnc2ccc(O)cc12 — within 1.5-fold, 1270 nM
- Cc1nn(C2CCS(=O)(=O)C2)c(C)c1C1Nc2ccccc2C(=O)N1Cc1ccc2c(c1)OCO2 (stereo unspecified) — 1.7-fold lower, 511 nM
- CCn1ccc2c(N3CCCCS3(=O)=O)cc(C(=O)N[C@@H](Cc3ccccc3)[C@H](O)CNC(C)(C)CCCC(C)C)cc21 — 2.1-fold lower, 418 nM
- CC(C)(C)OC(=O)[C@H](CC(N)=O)NC(=O)c1ccc(-c2ccc(-c3nc4cc(C(F)(F)F)ccc4[nH]3)s2)cc1 — 3.2-fold lower, 271 nM
- O=C(Nc1ccc(Cn2ncc(N3CCCNCC3)c(Cl)c2=O)cc1)Nc1ccc(-c2ccccc2)cc1 — within 1.5-fold, 797 nM
- C=C[C@]1(C)C[C@@H](OC(=O)NC(=O)C2CCN(C(=O)CSc3ccccc3)CC2)[C@]2(C)[C@H](C)CC[C@]3(CCC(=O)[C@H]32)[C@@H](C)[C@@H]1O — within 1.5-fold, 1010 nM
- O=C(NC1CCC(CN2CCC(c3c[nH]c4ccccc34)CC2)CC1)c1cc(-c2ccccc2)c(C(F)(F)F)s1 (stereo unspecified) — 5.1-fold lower, 167 nM
- O=C(Nc1ccc([N+](=O)[O-])cc1)Nc1nc2ccc(Cl)cc2s1 — within 1.5-fold, 837 nM
- O=C(C=Cc1cccs1)Nc1ccc(-c2nc3ccccc3[nH]2)cc1 — within 1.5-fold, 1140 nM
- COc1ccc2ncc(F)c(CCN3CC[C@@H](CNCc4ccc5c(c4C)OCCO5)C3)c2n1 — within 1.5-fold, 1030 nM
- CC[C@H]1CN2CC[C@H]1C[C@H]2[C@H](O)c1cc(Cl)nc2ccc(OC)cc12 — within 1.5-fold, 578 nM
- Cc1cc(-c2cccc(CNC3CCCC3)c2)ccc1S(=O)(=O)NCCN1CCCC1 — within 1.5-fold, 1240 nM
- COc1ccc2nccc([C@@H](O)CN3CCC(NCc4ccc5c(c4)NC(=O)CS5)CC3)c2c1 — 1.5-fold lower, 567 nM
- CCOc1ccccc1NC(=O)Nc1ccc2c(c1)CCN(C1CCC1)CC2 — within 1.5-fold, 1110 nM
- CN1CCN(c2ccnc3ccc(NC(=O)Nc4ccccc4Br)cc23)CC1 — 2.3-fold lower, 372 nM
- COc1cc2nc(-c3ccc(Br)cc3)cc(N)c2cc1OC — 5-fold lower, 173 nM
- CC[C@H]1CN2CC[C@@H]1C[C@H]2[C@H](O)c1cc(-c2ccccc2)nc2ccc(O)cc12 — 4.6-fold lower, 189 nM
- CC[C@H]1CN2CC[C@@H]1C[C@H]2[C@H](O)c1cc(N2CCC(O)(c3ccccc3)CC2)nc2ccc(OC)cc12 — 9.6-fold lower, 90 nM
- CCCC(CNCc1cccc(OC(F)(F)F)c1)CNc1cc(=O)c2ccccc2[nH]1 (stereo unspecified) — 1.5-fold lower, 556 nM
- Cc1[nH]cc(Br)c(=O)c1-c1ccc(Oc2ccccc2)cc1 — within 1.5-fold, 678 nM
- CN1CCN(c2ccc(Nc3c(C(N)=O)cnc4cc(-c5ccoc5)ccc34)cc2)CC1 — within 1.5-fold, 806 nM
- COc1ccc(NC(=O)CCNc2cc(C)nc(NCCc3ccc(F)cc3)n2)cc1 — within 1.5-fold, 848 nM
- CCOC(C(=O)OCC1CCCN(C)C1)(c1ccccc1)c1ccccc1 (stereo unspecified) — within 1.5-fold, 868 nM
- CN1CCN(Cc2ccc(-c3ccc4ncnc(Nc5ccc(OCc6ccccc6)cc5)c4c3)o2)CC1 — within 1.5-fold, 689 nM
- CCOc1ccc(Br)cc1/C=C/C(=O)Nc1ccc(C2CCN(C)CC2)cc1 — 1.9-fold lower, 450 nM
- N#Cc1cccc(NC(=O)Nc2ccc(CC(=O)N3CCc4cc(Cl)c(N5CCN(C/C=C/c6ccccc6)CC5)cc43)cc2)c1 — within 1.5-fold, 875 nM
- N#Cc1ccc(-c2cnc3ccc(NCCc4cccnc4)nn23)cc1 — 3.4-fold lower, 255 nM
- O=C(NC1CCCCN(Cc2ccccc2O)C1)c1ccc(Cl)c(Cl)c1 (stereo unspecified) — within 1.5-fold, 747 nM
- COc1cc(Nc2nccc(Nc3ccc4c(C)n[nH]c4c3)n2)cc2ccccc12 — within 1.5-fold, 699 nM
- CSc1nc2nc(C)c(Cc3cccc(F)c3)c(C)n2n1 — within 1.5-fold, 904 nM
- CCOC(=O)N/N=C/[C@H](CCc1ccccc1)NC(=O)[C@H](CC(C)C)NC(=O)c1cc2cccc(OC)c2o1 — within 1.5-fold, 880 nM
- COc1ccc(CNCCc2cccs2)cc1-c1ccc(OC)c(S(=O)(=O)NCCN2CCCC2)c1 — 1.6-fold higher, 1410 nM
- CC(C)COc1ccc(Cl)cc1Cc1ccc(-c2nc3cnc4ccccc4c3[nH]2)o1 — within 1.5-fold, 1260 nM
- C=C[C@]1(C)C[C@@H](OC(=O)c2cncn(COC)c2=O)[C@]2(C)[C@H](C)CC[C@]3(CCC(=O)[C@H]32)[C@@H](C)[C@@H]1O — within 1.5-fold, 878 nM
- Cc1cc2nc(-c3ccc(/C=C/C(=O)NCc4ccc(Cl)c(Cl)c4)cc3)[nH]c2cc1C — within 1.5-fold, 824 nM
- N=C1NC(c2ccccc2)(c2ccccc2)C(=O)N1CC=Cc1ccccc1 — within 1.5-fold, 598 nM
- COc1ccccc1CCNc1nc(C)cc(N[C@@H](CC(C)C)C(=O)NCc2cccc(F)c2)n1 — within 1.5-fold, 973 nM
- CC1CCCCN1Cc1cccc(-c2c[nH]c3nc(NC4CCCC4)ncc23)c1 (stereo unspecified) — 1.5-fold higher, 1310 nM
- O=C1COC2(CN1C1CCN(Cc3ccc(O)cc3Cl)C1)c1ccccc1-c1ccccc12 (stereo unspecified) — 1.5-fold higher, 1330 nM
- CC=CC(=O)N1CCN(c2nccc(-c3ccc(C(C)(C)C)cc3)n2)CC1 — within 1.5-fold, 1080 nM
- COc1ccc(-c2ccc(CNCc3ccsc3)cc2)cc1S(=O)(=O)NCCN1CCCC1 — within 1.5-fold, 794 nM
- COc1ccc(-c2csc3ncnc(Cl)c23)cc1 — within 1.5-fold, 781 nM
- COc1cc(C2=NN(S(=O)(=O)c3c(Cl)cc(Cl)cc3Cl)CCCC2)ccc1Cl — 3-fold lower, 291 nM
- CCCCNC(=N)c1ccc(OCCCCCOc2ccc(C(=N)NCCCC)cc2)cc1 — 7.5-fold lower, 114 nM
- COc1cccc(-c2csc(C(=O)NCC3CCN(Cc4ccc(C(C)C)cc4)C3)c2)c1 (stereo unspecified) — 1.6-fold higher, 1390 nM
- Cc1cccc2nc(-c3cccc(-c4cccc(CNCc5cnn(-c6ccccc6)n5)c4)c3)[nH]c12 — within 1.5-fold, 663 nM
- COc1ccc(CNCCc2cccs2)cc1-c1cccc(S(=O)(=O)NCCN2CCCC2)c1 — within 1.5-fold, 877 nM
- COc1ccc(NC(=O)[C@H](CC(C)C)Nc2cc(C)nc(NCC3CCCCC3)n2)cc1 — within 1.5-fold, 1100 nM
- CC(C)(C)CCN1CCC(CNC(=O)c2cc(-c3cccc(Cl)c3)cs2)C1 (stereo unspecified) — within 1.5-fold, 819 nM
- CCCCCCCN(CCCCCCC)CCCC(=O)Nc1ccnc2ccc(OC)cc12 — 5.6-fold lower, 154 nM
- Cc1ccc(O)cc1Nc1ccnc2cc(-c3cccc(CNCCS(C)(=O)=O)c3)ccc12 — within 1.5-fold, 836 nM
- NCCCCNc1cc(-c2ccnc(Nc3cccc(Cl)c3)n2)ccn1 — 3-fold lower, 284 nM
- CCCN(c1ccc(C(F)(F)F)cc1[N+](=O)[O-])S(=O)(=O)C(c1ccccc1)c1ccc(C(F)(F)F)cc1[N+](=O)[O-] (stereo unspecified) — within 1.5-fold, 1220 nM
- COc1cc2c(cc1S(=O)(=O)c1ccc(NC(=O)Nc3ccc(F)cc3)cc1)CCN(C)CC2 — 1.8-fold lower, 473 nM
- CCN(CCCN1CCCCC1)c1cc(C)nc(Nc2ccc(C(C)C)cc2)n1 — 1.6-fold lower, 543 nM
- Cc1[nH]c2ccccc2c1C(=O)CSc1nn(-c2ccccc2)c(=S)s1 — within 1.5-fold, 699 nM
- O=C(CCc1c[nH]cn1)Nc1cccc(-c2cccc(-c3nc4ccccc4[nH]3)c2)c1 — within 1.5-fold, 660 nM
